Assay: Effect on lysosomal activation in mouse splenocytes at 100 ug/mL relative to control
Assay type: functional

Row | Compound | Activity
1 | CC(=O)OC[C@]1(C)[C@@H]2CC[C@@]3(C)c4cocc4CC[C@@H]3[C@@]2(C)CC[C@@H]1OC(C)=O | 130%
2 | CC(=O)OC[C@@]1(C)CCC[C@]2(C)[C@H]3CCc4cocc4[C@]3(C)CC[C@@H]12 | 130%
